Measurements taken from PMC8069832, “New Amides and Phosphoramidates Containing Selenium: Studies on Their Cytotoxicity and Antioxidant Activities in Breast Cancer” (Antioxidants, 2021).

Legend:
[1] = tested on: MCF-7; experiment: cells; conditions: Homo sapiens, MCF7, 48 h; for activity at 10 µM: read-out: Cell growth (%) MCF-7
[2] = tested on: HT-29; experiment: cells; conditions: Homo sapiens, HT-29, 48 h; for activity at 10 µM: read-out: Cell growth (%) HT-29
[3] = tested on: CCRF-CEM; experiment: cells; conditions: Homo sapiens, 48 h; for activity at 10 µM: read-out: Cell growth (%) CCRF-CEM
[4] = tested on: 184B5; experiment: MTT cytotoxicity in nonmalignant mammary gland derived cells; type: cell-based
Experimental: (§1) Cell lines were provided by the European Collection of Cell Cultures (ECACC) or by the American Type Culture Collection (ATCC). Seven cell lines were used: MCF-7 (breast adenocarnicoma), 184B5 (nonmalignant, mammary gland derived), CCRF-CEM (lymphoblastic leukemia), HT-29 (colon carcinoma), HTB-54 (lung carcinoma), BEAS-2B (nonmalignant, derived from the bronchial epithelium) and PC-3 (prostate carcinoma). MCF-7, CCRF-CEM, HT-29, HTB-54, BEAS-2B and PC-3 cell lines were grown in RPMI medium (Gibco) supplemented with 10% fetal bovine serum (FBS; Gibco), 100 units/mL penicillin and […] streptomycin (Gibco). 184B5 cells were grown in DMEM/F12 medium supplemented with 5% FBS, 1 × ITS (Lonza), 100 nM hydrocortisone (Aldich), 2 mM sodium pyruvate (Lonza), 20 ng/mL EGF (Sigma-Aldrich), 0.3 nM trans-retinoic acid (Sigma-Aldrich), 100 units/mL penicillin and […] streptomycin. Cells were maintained at 37 °C and 5% CO2.
(§2) The cytotoxic effect of each substance was tested by the MTT method. Each compound was initially dissolved in DMSO at a concentration of 0.01 M, and serial dilutions were prepared with nonsupplemented medium. The cytotoxic effect of each compound was tested at 50 and 10 µM as a first screening. […]
(§3) A total of 1 × 10^4 cells/well in 96-well plates were treated with increasing concentrations of the corresponding compounds for 48 h at 37 °C in a humidified atmosphere containing 5% CO2. Then, cells were incubated with 50 µL of MTT (2 mg/mL stock) for 4 h. The medium was then removed by aspiration, and the formazan crystals were dissolved in […] of DMSO. […] Data were obtained from at least 3 independent experiments performed in quadruplicate. The standard error of the means (SEM) for the cytotoxic parameters was calculated applying the standard deviation formula to the mean values of each parameter for the three independent experiments performed.
(§4) . Cisplatin was used as a standard drug. […]. […] The presence of electron-withdrawing groups (-NO2, -CF3, -Cl) in the phenyl ring favored the cytotoxic activity in the amides, but in the phosphoramidates, the best results were obtained for aliphatic chains methoxy (II.1b, II.2b) and ethoxy (II.1d, II.2d). […].
(§5) The lack of selectivity toward cancerous cells is one of the major issues during the discovery and development of new anticancer agents. Therefore, we evaluated the cytotoxic activity of our compounds against two cell lines derived from nonmalignant breast tissue (184B5) and no malignant bronchial epithelium (BEAS-2B) (Table 2). […].

[5] = as above; type: cell-based; conditions: human; nonmalignant cells, 48 h; read-out: LC50 184B5
Experimental: as §1, §2, §3, §4, §5

[6] = tested on: PC-3; experiment: cells; type: cell-based; conditions: Homo sapiens, PC-3, 48 h, average ± SEM
Experimental: as §1, §2, §3, §4

[7] = tested on: HTB-54; experiment: cells; type: cell-based; conditions: Homo sapiens, HTB-54, 48 h, average ± SEM
Experimental: as §1, §2, §3, §4

[8] = tested on: BEAS-2B; experiment: MTT cytotoxicity in nonmalignant bronchial epithelium cells; type: cell-based; conditions: Homo sapiens, BEAS-2B, nonmalignant cells, 48 h
Experimental: as §1, §2, §3, §4, §5

[9] = as above; type: cell-based; conditions: human; nonmalignant cells, 48 h; read-out: LC50 BEAS-2B
Experimental: as §1, §2, §3, §4, §5

SMILES: N#C[Se]c1ccc(NC(=O)c2ccc(C#N)cc2)cc1 [I.2d]
- activity at 10 µM [1]: 74.3%
- activity at 10 µM [2]: 105%
- activity at 10 µM [3]: 115%

SMILES: Cc1ccc(C(=O)Nc2ccc([Se]C#N)cc2)cc1 [I.2g]
- activity at 10 µM [1]: 70.4%
- activity at 10 µM [2]: 94.1%
- activity at 10 µM [3]: 94.3%

SMILES: N#C[Se]c1ccc(NC(=O)c2ccco2)cc1 [I.2h]
- activity at 10 µM [1]: 41.6%
- GI50 ([1]; read-out: GI50 MCF-7, 48 h, average ± SEM): 7.4 ± 1.9 µM
- CC50 ([1]; read-out: LC50 MCF-7): 94.9 ± 4.7 µM
- IC (TGI) ([1]; read-out: TGI MCF-7): 50.4 ± 1.3 µM
- activity at 10 µM [2]: 46.7%
- GI50 ([2]; read-out: GI50 HT-29): 42.7 ± 1.2 µM
- CC50 ([2]; read-out: LC50 HT-29): > 100 µM
- IC (TGI) ([2]; read-out: TGI HT-29): > 100 µM
- GI50 ([4]; Homo sapiens, 184B5, nonmalignant cells, 48 h, read-out: GI50 184B5): 36.1 µM
- IC (TGI) ([4]; Homo sapiens, 184B5, nonmalignant cells, 48 h, read-out: TGI 184B5): > 100 µM
- Selectivity index (SI) = GI50 (184B5)/GI50 (MCF-7) ([4]; breast): 5.66
- LC50 (50% lethal concentration) [5]: > 100 µM
- activity at 10 µM [3]: 47.1%
- GI50 ([3]; read-out: GI50 CCRF-CEM): 21.8 ± 3.1 µM
- CC50 ([3]; read-out: LC50 CCRF-CEM): > 100 µM
- IC (TGI) ([3]; read-out: TGI CCRF-CEM): > 100 µM
- GI50 ([6]; read-out: GI50 PC-3): > 100 µM
- LC50 ([6]; read-out: LC50 PC-3): > 100 µM
- IC (TGI) ([6]; read-out: TGI PC-3): > 100 µM
- GI50 ([7]; read-out: GI50 HTB54): > 100 µM
- CC50 ([7]; read-out: LC50 HTB54): > 100 µM
- IC (TGI) ([7]; read-out: TGI HTB54): > 100 µM
- GI50 ([8]; read-out: GI50 BEAS-2B): 8.47 µM
- IC (TGI) ([8]; read-out: TGI BEAS-2B): 67.3 µM
- LC50 (50% lethal concentration) [9]: > 100 µM

SMILES: N#C[Se]c1ccc(NC(=O)C23CC4CC(CC(C4)C2)C3)cc1 [I.2k]
- activity at 10 µM [1]: 113%
- activity at 10 µM [2]: 99.7%
- activity at 10 µM [3]: 107%

SMILES: N#C[Se]c1ccc(NC(=O)/C=C/c2ccccc2)cc1 [I.2l]
- activity at 10 µM [1]: 65%
- activity at 10 µM [2]: 76%
- activity at 10 µM [3]: 62%

SMILES: N#C[Se]c1ccc(NC(=O)c2cccc3ccccc23)cc1 [I.2m]
- activity at 10 µM [1]: 101%
- activity at 10 µM [2]: 101%
- activity at 10 µM [3]: 70.9%

SMILES: CSc1ccc(C(=O)Nc2ccc([Se]C#N)cc2)cc1 [I.2n]
- activity at 10 µM [1]: 69.5%
- activity at 10 µM [2]: 101%
- activity at 10 µM [3]: 100%

SMILES: O=P(Nc1ccc([Se][Se]c2ccc(NP(=O)(Oc3ccccc3)Oc3ccccc3)cc2)cc1)(Oc1ccccc1)Oc1ccccc1 [II.1c]
- activity at 10 µM [1]: 94%
- activity at 10 µM [2]: 109%
- activity at 10 µM [3]: 85.2%

SMILES: O=P(Nc1ccccc1)(Nc1ccc([Se][Se]c2ccc(NP(=O)(Nc3ccccc3)Oc3ccccc3)cc2)cc1)Oc1ccccc1 (stereo not shown) [II.1f]
- activity at 10 µM [1]: 90%
- activity at 10 µM [2]: 106%
- activity at 10 µM [3]: 125%

SMILES: Cc1ccc(OP(=O)(Nc2ccc([Se][Se]c3ccc(NP(=O)(Oc4ccc(C)cc4)Oc4ccc(C)cc4)cc3)cc2)Oc2ccc(C)cc2)cc1 [II.1g]
- activity at 10 µM [1]: 82.6%
- activity at 10 µM [2]: 104%
- activity at 10 µM [3]: 111%

SMILES: N#C[Se]c1ccc(NP(=O)(Oc2ccccc2)Oc2ccccc2)cc1 [II.2c]
- activity at 10 µM [1]: 114%
- activity at 10 µM [2]: 116%
- activity at 10 µM [3]: 81.9%

SMILES: N#C[Se]c1ccc(NP(=O)(Nc2ccccc2)Oc2ccccc2)cc1 (stereo not shown) [II.2f]
- activity at 10 µM [1]: 61.4%
- activity at 10 µM [2]: 64.6%
- activity at 10 µM [3]: 22.3%

SMILES: Cc1ccc(OP(=O)(Nc2ccc([Se]C#N)cc2)Oc2ccc(C)cc2)cc1 [II.2g]
- activity at 10 µM [1]: 75.6%
- activity at 10 µM [2]: 99.1%
- activity at 10 µM [3]: 108%
